Measured values published in ChEMBL document CHEMBL5380800, “Discovery of Small-Molecule Autophagy Inhibitors by Disrupting the Protein-Protein Interactions Involving Autophagy-Related 5” (J Med Chem, 2023).
Active and inactive are the calls of the source. The rule behind the calls is not given here.

What was measured:
[1] = Inhibition of ATG5-TECAIR (unknown origin) protein protein interaction expressed in Escherichia coli BL21 (DE3) by HTRF method; parameters: species or system Homo sapiens; conditions: read-out: IC50
THP-1 = assay: Downregulation of LC3-II protein level in human THP-1 cells at 5 to 40 uM incubated for 6 hrs in presence of rapamycin/chloroquine by Western blot analysis; assay type: functional, cell-based; conditions: dose 5-40 µM
COS-7 [2] = assay: Inhibition of autophagy in African green monkey COS-7 cells assessed as effect on LC3 level by flow cytometry analysis; assay type: toxicity, cell-based; conditions: chlorocebus aethiops, cos-7, 40 µM
COS-7 [3] = assay: Downregulation of LC3-II protein level in African green monkey COS-7 cells at 1.25 to 20 uM incubated for 6 hrs by Western blot analysis; assay type: functional, cell-based; conditions: Chlorocebus aethiops, dose 1.25-20 µM
COS-7 [4] = assay: Inhibition of autophagy in African green monkey COS-7 cells at 20 uM by flow cytometry analysis relative to control; assay type: functional; conditions: Chlorocebus aethiops
U-937 = assay: Downregulation of LC3-II protein level in human U-937 cells at 5 to 40 uM incubated for 6 hrs in presence of rapamycin/chloroquine by Western blot analysis; assay type: functional, cell-based; conditions: dose 5-40 µM
[5] = Inhibition of ATG5-ATG16L1 (unknown origin) protein protein interaction expressed in Escherichia coli BL21 (DE3) by HTRF method; parameters: species or system Homo sapiens; conditions: read-out: IC50

IC50 [1]: 1.7 µM
IC50 [5]: 1.1 µM
SMILES: O=C(O)c1ccc(N2C(=O)/C(=C/c3ccc(-c4ccc([N+](=O)[O-])cc4)o3)C=C2c2ccccc2)cc1
Activity (THP-1): Active
inhibition (INH) (COS-7 [2]): Dose-Dependent Effect
Activity (COS-7 [3]): Active
inhibition at 20 µM (COS-7 [4]): 7.16%
Activity (U-937): Active
